The values that follow come from publication PMC7380166, “How to Study the Metabolism of New Psychoactive Substances for the Purpose of Toxicological Screenings—A Follow-Up Study Comparing Pooled Human Liver S9, HepaRG Cells, and Zebrafish Larvae” (Frontiers in Chemistry, 2020).

Data set [1] has as its target T1, hCES1b (Homo sapiens, UniProt P23141).
T1 construct: purchased Corning
T1 sequence (P23141 18-567): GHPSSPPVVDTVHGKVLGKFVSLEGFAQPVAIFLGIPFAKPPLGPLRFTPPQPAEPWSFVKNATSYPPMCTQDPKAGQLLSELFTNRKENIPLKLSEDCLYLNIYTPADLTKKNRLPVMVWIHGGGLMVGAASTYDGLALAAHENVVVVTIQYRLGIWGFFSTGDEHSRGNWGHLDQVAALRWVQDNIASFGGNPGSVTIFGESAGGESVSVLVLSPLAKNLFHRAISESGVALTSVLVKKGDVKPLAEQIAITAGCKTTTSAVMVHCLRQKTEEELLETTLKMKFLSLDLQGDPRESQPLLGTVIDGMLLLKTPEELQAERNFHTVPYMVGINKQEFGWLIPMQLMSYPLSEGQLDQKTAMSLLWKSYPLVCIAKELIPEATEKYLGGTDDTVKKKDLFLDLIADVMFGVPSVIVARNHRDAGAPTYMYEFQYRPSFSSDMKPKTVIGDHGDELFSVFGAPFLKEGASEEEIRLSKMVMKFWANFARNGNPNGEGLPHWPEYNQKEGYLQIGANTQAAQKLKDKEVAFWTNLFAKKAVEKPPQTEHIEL
Nature of the data set: Esterases activity screening, hCES1b. Type of data set: in vitro ADME. The arrangement: key: +, detected; –: −, not detected. Conditions: 100 μM 4F-MDMB-BINACA, 0.2 mg protein/ml, duplicate. As for the experimental part: Experiments were performed in accordance with a previous study (Meyer et al., [2015]) with minor modifications. The final volume per reaction tube was 100 μl with a final 4F-MDMB-BINACA concentration of 100 μM and enzyme concentration of 0.2 mg protein/ml for hCES1b, hCES1c, and hCES2. Incubations with pHLM and pHLS9 (0.2 mg protein/ml, each) were performed in a similar manner. Additionally, incubations with human plasma (50 μl pooled human plasma, 40 μl phosphate buffer, and 10 μl substrate) were performed. The reactions were started by adding the enzyme-containing preparation and terminated with an equal volume of ice-cold acetonitrile containing diazepam-d5 (100 μM) as an internal standard. Only plasma incubations were terminated by addition of a three-fold volume of ice-cold acetonitrile. The reaction mixtures were centrifuged at 18,407 × g for 15 min, and then supernatants were transferred to autosampler vials, and 5 μl was injected onto the LC-HRMS/MS system. Negative control incubations without enzyme were prepared to identify non-metabolically formed compounds. All incubations were done in duplicate.

A short description of data set [2]: Authentic human urine sample after intake of 4F-MDMB-BINACA, LC-HRMS/MS. To be noted: one patient, unknown dose and time point of intake. Type of data set: in vivo. As for the experimental part: Human blood and urine collected after a suspected intake of drugs of abuse were submitted to the authors' laboratory for regular clinical toxicological analysis. The blood sample was centrifuged, and plasma was separated. The authors' standard liquid–liquid extraction for human plasma screening was used (Maurer et al., [2016]). Briefly, 1,000 μl of plasma was mixed with 100 μl of internal standard (0.01 μg/μl trimipramine-d3 in methanol) and extracted with 5,000 μl of a mixture of diethyl ether:ethyl acetate (1:1, v/v) after addition of 2,000 μl of saturated sodium sulfate solution. Phase separation was mediated by centrifugation. The organic layer was transferred into a flask and evaporated to dryness at 60°C under reduced pressure. The aqueous residue was then alkalized with 500 μl of 1 M sodium hydroxide and extracted a second time with 5,000 μl of the diethyl ether:ethyl acetate mixture. The organic extract was transferred to the same flask and evaporated as described before. The combined residues were dissolved in 100 μl of methanol and transferred into an autosampler vial, and 5 μl was injected onto the LC-HRMS/MS system. An aliquot of the human urine sample (100 μl) was prepared according to a previous study by precipitation with 500 μl of acetonitrile (Wissenbach et al., [2011]). The mixture was shaken and centrifuged (18,407 × g, 2 min). […]

The conditions of data set [3]: pHLM without co-substrates of phase II reactions; ref Haschimi et al., [2019]; cited from earlier work.

Turning to `CC(C)(C)C(NC(=O)c1nn(CCCCF)c2ccccc12)C(=O)O` (stereo not drawn) [MB8], the “Detection of metabolite in incubation with hCES1b” value in data set [1] is on record as “+”.

`COC(=O)C(NC(=O)c1nn(CCCCF)c2ccccc12)C(C)(C)C` (stereo not drawn) [4F-MDMB-BINACA, methyl 2-[1-(4-fluorobutyl)-1H-indazole-3-carbonyl]amino-3,3-dimethylbutanoate]: in data set [2], the “Detectability of the parent compound in urine” value was “barely detectable”. Besides, in data set [3], the “Number of phase I metabolites identified in pHLM incubations” value is 11.
